{
  "source": "patent US8470769B2",
  "about": "“Method of treatment of bacterial infection by administration of poly-lysine” (priority 2004, dated 2013)",
  "key": {"[1]": {"tested_on": "Trichophyton interdigitale (NCPF 117)", "assay": "Fungal growth sensitivity assay (absorbance at 540 nm)", "assay_type": "cell-based", "method": "(§1) Trichophyton interdigitale (NCPF 117) and Trichophyton rubrum (NCPF 335) strains were obtained from the National Collection of Pathogenic Fungi, Bristol and maintained in culture by transfer at approximately monthly intervals on slopes of Sabuoraud's agar and Potato Dextrose Agar at 30° C. Candida albicans strain 3179 (obtained from the National Collection of Type Cultures [NCTC], Colindale) was maintained in Oxoid Mueller Hinton Broth at 37° C. Streptococcus pyogenes strain 8198, Staphylococcus aureus strain 10642 (methicillin-resistant), and E. coli 0157 strain 12900 were obtained from the NCTC, Colindale and maintained in Oxoid Mueller Hinton Broth at 37° C.\n(§2) To determine the sensitivity of fungal strains to each of the test peptides, their impact on fungal growth was assessed as follows. Suspensions of T. interdigitale and T. rubrum conidia and hyphal fragments were prepared by adding 10 ml of fresh Nutrient Glucose Broth (NGB) (Oxoid Nutrient broth containing 2% w/v glucose) to a slope culture and agitating with a spatula. The resulting conidial/hyphal fragment suspension was filtered through 2 layers of sterile surgical gauze to remove large hyphal mats and pieces of agar. 20 μl of this suspension (absorbance at 540 nm around 0.1, corresponding to approx 10^6 propagules/ml) was inoculated into each well of sterile, 96 well microtitre plates to which a total volume 80 μl of nutrient medium (NGB) and the appropriate amount of peptide solution had previously been added. Control wells were those in which the final assay volume of 100 μl was made up with NGB medium alone, plus solvent (if applicable and at the same concentration as the peptide samples if so). Fungal growth within the plates was monitored by absorbance at 540 nm in a Microtek plate reader after 24 h, 4 day and 7 day incubations at 30° C."}, "[2]": {"tested_on": "Trichophyton rubrum (NCPF 335)", "assay": "Fungal growth sensitivity assay (absorbance at 540 nm)", "assay_type": "cell-based", "method": "as §1\nas §2, with “Fungal growth within the plates was monitored by absorbance at 540 nm in a Microtek plate reader after 24 h, 4 day and 7 day incubations at 30° C.” left out"}, "[3]": {"tested_on": "Candida albicans strain 3179", "assay": "Candida albicans growth by optical density (absorbance at 540 nm)", "assay_type": "cell-based", "settings": "50 or 100 and 300 or 500 μg/ml peptide; 24 h and 48 h; time and dose-dependent (FIG. 4)", "method": "as §1\nThe yeast Candida albicans was cultured, as described previously in the materials and methods section, in growth medium alone (control cultures) or in growth medium containing 50 μg/ml or 100 μg/ml and 300 μg/ml or 500 μg/ml of peptide 1, 2, 3 or 4. Growth of C. albicans was assessed by measuring optical density (absorbance at 540 nm) after 24 h (FIG. 4a) and 48 h (FIG. 4b) in culture. […] In a separate experiment, C. albicans survival was assessed after 18-24 h in cultures grown in medium alone (controls) or those including a range of concentrations of peptide 4 spanning 1 μg/ml to 1000 μg/ml (FIG. 6)."}, "[4]": {"tested_on": "Streptococcus pyogenes strain 8198", "assay": "Bacterial survival assay", "assay_type": "cell-based", "settings": "range of concentrations; 3 h of exposure; dose dependent (FIG. 7)", "method": "(§3) Streptococcus pyogenes strain 8198, Staphylococcus aureus strain 10642 (methicillin-resistant), and E. coli 0157 strain 12900 (all obtained from the NCTC, Colindale) were grown for 18-24 h then stored at 4° C. prior to use. Fresh cultures grown overnight were centrifuged at 2000×g for 10 min and washed with fresh Mueller Hinton Broth. Sensitivity to each of the four peptides was assayed as per C. albicans described above. For E. coli and S. aureus, the starting number of cells for the peptide sensitivity assay was 10^8/ml and the medium used for enumeration was Nutrient Agar (Oxoid). Str. pyogenes grew less well than the other strains on Mueller Hinton agar and so the starting number of cells for these assays was lower than that for the other strains, at 10^6/ml. Str. pyogenes survival was determined using Oxoid Tryptose Soya Agar in place of Nutrient Agar.\n(§4) Three clinically relevant bacterial pathogens, E. coli 0157, methicillin-resistant Staphylococcus aureus (MRSA) and Streptococcus pyogenes, were exposed, as described previously in the materials and methods section, to a range of concentrations of peptide 4. After a period of 3 h, samples of each bacterial culture were transferred to appropriate solid phase growth media plates and the numbers of viable colonies in control (growth medium only) and treated (growth medium containing peptide 4) samples assessed after 18-24 h."}, "[5]": {"tested_on": "Staphylococcus aureus strain 10642 (methicillin-resistant)", "assay": "Bacterial survival assay", "assay_type": "cell-based", "settings": "range of concentrations; 3 h of exposure; dose dependent (FIG. 7)", "method": "as §3, §4"}, "[6]": {"tested_on": "E. coli 0157 strain 12900", "assay": "Bacterial survival assay", "assay_type": "cell-based, Escherichia coli", "settings": "range of concentrations; 3 h of exposure; dose dependent (FIG. 7)", "method": "as §3, §4"}, "[7]": {"tested_on": "Candida albicans strain 3179", "assay": "Candida albicans survival assay (viable counts)", "assay_type": "cell-based", "settings": "for Survival of Candida albicans, antifungal activity compared with poly-L-lysine: 100 μg/ml, 1 mg/ml and 10 mg/ml, 2 hours at 37° C. (FIG. 19)", "method": "as §1\nTo determine the sensitivity of fungal strains to each of the test peptides, their impact on Candida survival was assessed as follows. C. albicans cultures were grown for 18-24 h then stored at 4° C. prior to use. Fresh cultures grown overnight were centrifuged at 2000×g for 10 min and washed with fresh Mueller Hinton Broth, adjusting the number of viable cells to between 5×10^6 and 1×10^7/ml. Assay buffer was prepared by adding 100 μl of NGB medium to 6.9 ml of 10 mM sodium phosphate buffer, pH 7.7. 35 μl of assay buffer with or without a range of peptide concentrations was added to a sterile polypropylene screw-capped vial and 15 μl of the Candida albicans inoculum described above was added. The vials were incubated at 37° C. in a water bath for 2 h, and the number of Candida spp. surviving was determined by serial dilution in sterile phosphate buffered saline (PBS) and plating out onto 9 cm Petri dishes containing Oxoid Sabouraud's Agar (20 ml). Counts were made after incubation of these plates at 37° C. for 18-24 h."}, "[8]": {"settings": "3 concentrations of Peptide 4, no acetic acid, 96 hours at 30° C. (FIG. 9)"}, "[9]": {"settings": "100 μg/ml, no acetic acid, 96 hours at 30° C. (FIG. 15)"}, "[10]": {"settings": "3 concentrations, no acetic acid, 96 hours at 30° C. (FIG. 14)"}, "[11]": {"settings": "no acetic acid, 96 hours at 30° C. (FIG. 13)"}},
  "data": [
    {"compound": "CC(=O)O", "note": "[acetic acid]", "values": [
      {"measurement": "Growth of T. interdigitale", "setting": "[1]; 0.5% acetic acid, 96 hours at 30° C. (FIG. 11)", "result": "significant effect"},
      {"measurement": "Growth of T. rubrum (OD)", "setting": "[2]; 0.01% acetic acid alone, 3 days in culture (FIG. 8)", "result": "no significant effect"}
    ]},
    {"compound": "L-Arginine trimer [RRR]", "values": [
      {"measurement": "Activity against T. rubrum compared among the trimers", "setting": "[2]; 2 mg/ml of each trimer, 96 hours at 30° C. (FIG. 16)", "result": "most active peptide"},
      {"measurement": "Growth of T. rubrum (OD, percentage of the growth in the untreated culture)", "setting": "[2]; 2 mg/ml of trimer, 96 hours at 30° C. (FIG. 16)", "result": "significant reduction in growth"}
    ]},
    {"compound": "Peptide 4: peptide of FIG. 1 (SEQ ID NO: 10); highly cationic peptide comprising lysine and arginine residues (KRKRKRKCRKRKRRCRKRKCKRKRKRKRKCRKRKRKCCRRKK)", "values": [
      {"measurement": "Growth of C. albicans (optical density, absorbance at 540 nm)", "setting": "[3]", "result": "significantly inhibited C. albicans growth"},
      {"measurement": "Growth of T. interdigitale (optical density, absorbance at 540 nm)", "setting": "[1]; 50 μg/ml peptide, day 4 and 7, 0.5% acetic acid as solvent, compared to un-treated control (FIG. 2)", "result": "significantly inhibited"},
      {"measurement": "Growth of T. interdigitale (OD)", "setting": "[1]; [8]", "result": "inhibitory effect"},
      {"measurement": "Growth of T. interdigitale (OD)", "setting": "[1]; 7 days, no acetic acid solvent (FIG. 10)", "result": "significantly inhibit fungal growth"},
      {"measurement": "Effect of salt concentrations on antifungal activity towards T. interdigitale", "setting": "[1]; Peptide 4 1.2 mg/ml, NaCl 100 mM to 500 mM, no acetic acid, 96 h at 30° C. (FIG. 17)", "result": "not affected"},
      {"measurement": "Peptide concentration at which growth of T. interdigitale was inhibited", "setting": "[1]; no acetic acid, 96 hours at 30° C. (FIG. 9)", "result": 0.55, "unit": "mg/mL"},
      {"measurement": "Growth of T. rubrum (optical density, absorbance at 540 nm)", "setting": "[2]; 50 μg/ml peptide, day 4 and 7, 0.5% acetic acid as solvent, compared to un-treated control (FIG. 3)", "result": "significantly inhibited"},
      {"measurement": "Growth of T. rubrum (OD)", "setting": "[2]; 1 mg/ml peptide 4 alone, 3 days in culture (FIG. 8)", "result": "inhibited T. rubrum growth"},
      {"measurement": "Growth of T. rubrum (OD)", "setting": "[2]; [8]", "result": "inhibitory effect"},
      {"measurement": "Survival of Streptococcus pyogenes (viable colonies)", "setting": "[4]", "result": "significantly inhibited survival"},
      {"measurement": "Survival of methicillin-resistant Staphylococcus aureus (MRSA) (viable colonies)", "setting": "[5]", "result": "significantly inhibited survival"},
      {"measurement": "Survival of E. coli 0157 (viable colonies)", "setting": "[6]", "result": "significantly inhibited survival"},
      {"measurement": "Survival of C. albicans (viability counts)", "setting": "[7]; 1 μg/ml to 1000 μg/ml, after 24 h in culture (FIG. 6)", "result": "decreased in a dose-dependent manner"},
      {"measurement": "Survival of C. albicans at high salt concentrations", "setting": "[7]; range of Peptide 4 concentrations, two concentrations of NaCl, 2 h incubation at 37° C. (FIG. 18)", "result": "Significant killing activity"},
      {"measurement": "Effect of salts on fungicidal activity against C. albicans", "setting": "[7]; two concentrations of NaCl, 2 h incubation at 37° C. (FIG. 18)", "result": "not inhibited by salts"}
    ]},
    {"compound": "Poly-D-lysine-HBr 4,000-15,000Da (27-100aa) [pKd27-100]", "values": [
      {"measurement": "Survival of Candida albicans, antifungal activity compared with poly-L-lysine", "setting": "[7]", "result": "very similar antifungal activity to the poly-L-lysine"}
    ]},
    {"compound": "Poly-L-arginine-HCl 5,000-15,000 (28-86aa) [pR28-86]", "values": [
      {"measurement": "Growth of T. interdigitale (OD)", "setting": "[1]; [9]", "result": "loss of activity"},
      {"measurement": "Concentration down to which active against T. interdigitale", "setting": "[1]; [10]", "result": 0.55, "unit": "mg/mL"},
      {"measurement": "Growth of T. rubrum (OD)", "setting": "[2]; [9]", "result": "loss of activity"},
      {"measurement": "Growth of T. rubrum", "setting": "[2]; 1 mg/ml, no acetic acid, 96 hours at 30° C. (FIG. 13)", "result": "totally inhibiting growth"},
      {"measurement": "Concentration down to which active against T. rubrum", "setting": "[2]; [10]", "result": 0.55, "unit": "mg/mL"},
      {"measurement": "Inhibitory impact against T. rubrum compared with poly-L-Lysine", "setting": "[2]; equivalent doses, no acetic acid, 96 hours at 30° C. (FIG. 13)", "result": "more active"},
      {"measurement": "Growth of T. rubrum", "setting": "[2]; [11]", "result": "inhibited the growth"},
      {"measurement": "Survival of Candida albicans, antifungal activity compared with poly-L-lysine", "setting": "[7]", "result": "increased antifungal activity"}
    ]},
    {"compound": "Poly-L-lysine-HCl 15,000-30,000Da (100-200aa) [pK100-200]", "values": [
      {"measurement": "Growth of T. interdigitale", "setting": "[1]; between 1 mg/ml and 50 μg/ml, no acetic acid, 96 hours at 30° C. (FIG. 12)", "result": "inhibited growth at all concentrations tested"},
      {"measurement": "Growth of T. rubrum", "setting": "[2]; [11]", "result": "inhibited the growth"}
    ]}
  ]
}
